Results on 21 compounds are retold here after patent publication US8263606B2 (Xenon Pharmaceuticals Inc., priority 2008, dated 2012).

Where only a bound is given, the exact number is not on record here.

Series [1] concerns sodium channel. The series is described as follows: Guanidine influx assay (14C-guanidine radiotracer flux, in vitro). In kind it is cell-based, human or rat. The conditions noted are these: guanidine influx assay using a known cell line that expresses a sodium channel. The method, boiled down: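 Radiotracer read-out: intracellular 14C-guanidine counted after washing with guanidine-supplemented low-sodium buffer. Cells expressing human or rat channels get test agent plus aconitine activator and tracer, incubated at ambient temperature. Dilution series centred on 1 μM; IC50 by sigmoidal dose-response fit.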

The subject of series [2] is inactivated state of the channel of interest (sodium channel). The series is described as follows: Electrophysiological assay (whole cell voltage clamp, in vitro). In kind it is cell-based. As to conditions: affinity for the inactivated state of the channel of interest. As to the method: Cells expressing the channel of interest are cultured in DMEM growth media (Gibco) with 0.5 mg/mL G418, +/−1% PSG, and 10% heat-inactivated fetal bovine serum at 37° C. and 5% CO2. For electrophysiological recordings, cells are plated on 10 mm dishes.
Whole cell recordings are examined by established methods of whole cell voltage clamp (Bean et al., op. cit.) using an Axopatch 200B amplifier and Clampex software (Axon Instruments, Union City, Calif.). All experiments are performed at ambient temperature. Electrodes are fire-polished to resistances of 2-4 Mohms Voltage errors and capacitance artifacts are minimized by series resistance compensation and capacitance compensation, respectively. Data are acquired at 40 kHz and filtered at 5 kHz. The external (bath) solution consists of: NaCl (140 mM), KCl (5 mM), CaCl2 (2 mM), MgCl2 (1 mM), HEPES (10 mM) at pH 7.4. The internal (pipette) solution consists of (in mM): NaCl (5), CaCl2 (0.1), MgCl2 (2), CsCl (10), CsF (120), HEPES (10), EGTA (10), at pH 7.2.
To estimate the steady-state affinity of compounds for the resting and inactivated state of the channel (Kr and Ki, respectively), 12.5 ms test pulses to depolarizing voltages from −60 to +90 mV from a holding potential of −120 m V is used to construct current-voltage relationships (I-V curves). A voltage near the peak of the IV-curve (−30 to 0 m V) is used as the test pulse throughout the remainder of the experiment. Steady-state inactivation (availability) curves are then constructed by measuring the current activated during a 8.75 ms test pulse following 1 second conditioning pulses to potentials ranging from −120 to −10 m V.
The steady-state voltage-dependence of binding of a compound to a sodium channel is determined by measuring the blockage of the ionic current at two holding potentials. Binding to rested-state channels is determined by using a holding potential of −120 mV, so that maximal availability is achieved. Binding to inactivated-state channels is evaluated at a holding potential such that only 10% of the channels are available to open. The membrane potential is held at this voltage for at least 10 seconds so that drug binding can equilibrate.
The apparent dissociation constant at each voltage is calculated with the equation:
[formula] where Kd is the dissociation constant (either Kr or Ki), and [Drug] is the concentration of the test compound.
The Example numbers provided in Table 3 correspond to the Examples herein: […]

Series [3] has as its target CYP3A4 (Homo sapiens, UniProt P08684). The series is described as follows: Cytochrome P450 (CYP450) Inhibition Assay, CYP3A4 (Vivid fluorescence, BOMCC substrate). As to conditions: human, P450 Baculosomes (recombinant CYP3A4), probe BOMCC (Vivid substrate).

Sequence of CYP3A4 (P08684 whole entry): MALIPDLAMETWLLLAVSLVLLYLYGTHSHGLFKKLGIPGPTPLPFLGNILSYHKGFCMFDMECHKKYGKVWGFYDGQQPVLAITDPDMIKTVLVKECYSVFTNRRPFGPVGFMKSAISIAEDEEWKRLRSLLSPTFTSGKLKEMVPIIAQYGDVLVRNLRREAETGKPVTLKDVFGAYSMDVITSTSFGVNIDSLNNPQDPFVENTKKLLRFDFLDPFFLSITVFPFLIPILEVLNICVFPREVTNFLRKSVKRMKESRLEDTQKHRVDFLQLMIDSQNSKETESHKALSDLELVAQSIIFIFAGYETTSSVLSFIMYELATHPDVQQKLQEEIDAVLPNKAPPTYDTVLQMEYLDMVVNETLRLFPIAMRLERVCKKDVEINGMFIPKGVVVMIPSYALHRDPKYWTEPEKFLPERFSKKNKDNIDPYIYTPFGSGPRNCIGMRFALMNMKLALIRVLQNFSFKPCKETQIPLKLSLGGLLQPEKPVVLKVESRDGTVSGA

`O=C1N(Cc2ncccc2C(F)(F)F)c2ccccc2[C@]12COc1cc3c(cc12)OCCO3` [Example 1.12, (8S)-1′-{[3-(trifluoromethyl)pyridin-2-yl]methyl}-2,3-dihydrospiro[furo[2,3-g][1,4]benzodioxine-8,3′-indol]-2′(1′H)-one]: the IC50 in series [1] (activity level class) fell in the range of 1 to 100 nM. In addition, in series [2], the Ki is below 300 nM. Also, the inhibition at 10 µM in series [3] is below 50%.
Turning to `CN1C(=O)C2(COc3cc4c(cc32)OC(F)(F)O4)c2ccccc21` (stereo not shown) [Example 2.35], the IC50 in series [1] (activity level class) lay in the range of 1000 to 10000 nM. This compound had a Ki in series [2] above 300 nM. In addition, in series [3], the inhibition at 10 µM is above 50%.
Consider `O=C1N(CC2CCCCO2)c2ccccc2C12COc1cc3c(cc12)CCO3` (stereo not shown) [Example 4, 1′-(tetrahydro-2H-pyran-2-ylmethyl)-5,6-dihydrospiro[benzo[1,2-b:5,4-b′]difuran-3,3′-indol]-2′(1′H)-one], for which the half-maximal inhibitory concentration (IC50) in series [1] (activity level class) was 1 to 100 nM. In series [2], this compound had a Ki above 300 nM. The inhibition at 10 µM in series [3] was below 50%.
With `O=C1N(C[C@H]2CCCO2)c2ccccc2C12COc1cc3c(cc12)CCO3` (stereo partly drawn) [Example 4.3, 1′-[(2R)-tetrahydrofuran-2-ylmethyl]-5,6-dihydrospiro[benzo[1,2-b:5,4-b′]difuran-3,3′-indol]-2′(1′H)-one], the IC50 in series [1] (activity level class) was in the range of 1 to 100 nM. Also, the Ki in series [2] is above 300 nM. Besides, in series [3], the inhibition at 10 µM was below 50%.
The corresponding values for `O=C1N(CC2CCOCC2)c2ccccc2C12COc1cc3c(cc12)CCO3` (stereo not shown) [Example 4.6, 1′-(tetrahydro-2H-pyran-4-ylmethyl)-5,6-dihydrospiro[benzo[1,2-b:5,4-b′]difuran-3,3′-indol]-2′(1′H)-one] are 100 to 1000 nM, above 300 nM and below 50%.
Consider `O=C1N(CC2COCCO2)c2ccccc2C12COc1cc3c(cc12)CCO3` (stereo not shown) [Example 4.8, 1′-(1,4-dioxan-2-ylmethyl)-5,6-dihydrospiro[benzo[1,2-b:5,4-b′]difuran-3,3′-indol]-2′(1′H)-one], for which, in series [1] (activity level class), the IC50 was in the range of 1 to 100 nM. The compound also gave a Ki in series [2] above 300 nM. In addition, the inhibition at 10 µM in series [3] is below 50%.
The corresponding values for `O=C1N(CC2CCCOC2)c2ccccc2C12COc1cc3c(cc12)CCO3` (stereo not shown) [Example 4.10, 1′-(tetrahydro-2H-pyran-3-ylmethyl)-5,6-dihydrospiro[benzo[1,2-b:5,4-b′]difuran-3,3′-indol]-2′(1′H)-one] are 1 to 100 nM, above 300 nM and below 50%.
In the case of `O=C1N(CC2CCOC2)c2ccccc2C12COc1cc3c(cc12)CCO3` (stereo not shown) [Example 4.16, 1′-(tetrahydrofuran-3-ylmethyl)-5,6-dihydrospiro[benzo[1,2-b:5,4-b′]difuran-3,3′-indol]-2′(1′H)-one], the IC50 in series [1] (activity level class) is 100 to 1000 nM. This compound yielded a Ki in series [2] above 300 nM. Moreover, the inhibition at 10 µM in series [3] was below 50%.
Regarding `O=C1N(CC2CCO2)c2ccccc2C12COc1cc3c(cc12)CCO3` (stereo not shown) [Example 4.20, 1′-(oxetan-2-ylmethyl)-5,6-dihydrospiro[benzo[1,2-b:5,4-b′]difuran-3,3′-indol]-2′(1′H)-one], in series [1] (activity level class), the 50% inhibitory concentration (IC50) was 100 to 1000 nM. Further, the Ki in series [2] is above 300 nM. For the same compound, in series [3], the inhibition at 10 µM was below 50%.
`COc1ccc2c(c1)OCC21C(=O)N(C[C@H]2CCCO2)c2ccccc21` (stereo partly drawn) [Example 4.68, 6-methoxy-1′-[(2R)-tetrahydrofuran-2-ylmethyl]spiro[1-benzofuran-3,3′-indol]-2′(1′H)-one]: the half-inhibitory concentration (IC50) in series [1] (activity level class) lay in the range of 100 to 1000 nM. Also, in series [2], the Ki was above 300 nM. For the same compound, the inhibition at 10 µM in series [3] is below 50%.
In the case of `O=C1N(Cc2ccc(C(F)(F)F)o2)c2c(Cl)cccc2C12COc1cc3c(cc12)CCO3` (stereo not shown) [Example 5.1, 7′-chloro-1′-((5-(trifluoromethyl)furan-2-yl)methyl)-5,6-dihydro-2H-spiro[benzofuro[6,5-b]furan-3,3′-indolin]-2′-one], the IC50 in series [1] (activity level class) is 100 to 1000 nM. In series [2], this compound returned a Ki below 300 nM. Further, in series [3], the inhibition at 10 µM is above 50%.
The corresponding values for `O=C1N(Cc2ncccc2C(F)(F)F)c2ccccc2[C@@]12COc1cc3c(cc12)OCCO3` [Example 7.15] are 100 to 1000 nM, above 300 nM and below 50%.
Turning to `CN1C(=O)COc2cc3c(cc21)OCC31C(=O)N(C[C@H]2CCCO2)c2ccccc21` (stereo partly drawn) [Example 9.23, 4-methyl-1′-(((R)-tetrahydrofuran-2-yl)methyl)-4,7-dihydrospiro[benzofuro[5,6-b][1,4]oxazine-8,3′-indoline]-2′,3(2H)-dione], the IC50 in series [1] (activity level class) was in the range of 1 to 100 nM. In series [2], this compound gave a Ki above 300 nM. Further, the inhibition at 10 µM in series [3] was below 50%.
As to `COc1cc2c(cc1C)[C@@]1(CO2)C(=O)N(CN2CCN(C)CC2)c2ccccc21` [Example 11.64, (3S)-6-methoxy-5-methyl-1′-[(4-methylpiperazin-1-yl)methyl]spiro[1-benzofuran-3,3′-indol]-2′(1′H)-one hydrogen chloride], in series [1], the IC50 lay within 1 to 100 nM. In addition, in series [2], the Ki was above 300 nM. In series [3], the inhibition at 10 µM is below 50%.
As for `O=C1N(C[C@H]2CCCO2)c2ccccc2[C@]12COc1cc3c(cc12)CCO3` [Example 11.66, (3S)-1′-[(2R)-tetrahydrofuran-2-ylmethyl]-5,6-dihydrospiro[benzo[1,2-b:5,4-b′]difuran-3,3′-indol]-2′(1′H)-one], the IC50 in series [1] was 1 to 100 nM. The same compound yielded a Ki in series [2] above 300 nM.
`O=C1N(C[C@H]2CCCO2)c2ccccc2[C@@]12COc1cc3c(cc12)CCO3` [Example 11.67, (3R)-1′-[(2R)-tetrahydrofuran-2-ylmethyl]-5,6-dihydrospiro[benzo[1,2-b:5,4-b′]difuran-3,3′-indol]-2′(1′H)-one]: the IC50 in series [1] lay within 1000 to 10000 nM. In series [2], this compound returned a Ki above 300 nM. Besides, in series [3], the inhibition at 10 µM was below 50%.
In the case of `O=C1N(C[C@@H]2CCCO2)c2ccccc2[C@]12COc1cc3c(cc12)CCO3` [Example 11.69, (3S)-1′-[(2S)-tetrahydrofuran-2-ylmethyl]-5,6-dihydrospiro[benzo[1,2-b:5,4-b′]difuran-3,3′-indol]-2′(1′H)-one], the IC50 in series [1] fell in the range of 1000 to 10000 nM. Also, the Ki in series [2] was above 300 nM. Also, in series [3], the inhibition at 10 µM is below 50%.
On the same counts, the results for `CN(C)c1ccc(-c2cccc3c2C2(COc4cc5c(cc42)CCO5)C(=O)N3C[C@H]2CCCO2)cn1` (stereo partly drawn) [Example 16, 4′-[6-(dimethylamino)pyridin-3-yl]-1′-[(2R)-tetrahydrofuran-2-ylmethyl]-5,6-dihydrospiro[benzo[1,2-b:5,4-b′]difuran-3,3′-indol]-2′(1′H)-one] are 100 to 1000 nM, above 300 nM and above 50%.
On to `O=C1N(C[C@H]2CCCO2)c2cccc(-c3ccc(Oc4ccccc4)cc3)c2C12COc1cc3c(cc12)CCO3` (stereo partly drawn) [Example 16.6, 4′-(4-phenoxyphenyl)-1′-[(2R)-tetrahydrofuran-2-ylmethyl]-5,6-dihydrospiro[benzo[1,2-b:5,4-b′]difuran-3,3′-indol]-2′(1′H)-one], for which the IC50 in series [1] lay within 100 to 1000 nM. Besides, the Ki in series [2] is below 300 nM. In series [3], the inhibition at 10 µM was below 50%.
Turning to `CC(C)COc1ccc(-c2cccc3c2C2(COc4cc5c(cc42)CCO5)C(=O)N3C[C@H]2CCCO2)cc1` (stereo partly drawn) [Example 16.7, 4′-[4-(2-methylpropoxy)phenyl]-1′-[(2R)-tetrahydrofuran-2-ylmethyl]-5,6-dihydrospiro[benzo[1,2-b:5,4-b′]difuran-3,3′-indol]-2′(1′H)-one], the IC50 in series [1] is 100 to 1000 nM. In series [2], this compound registered a Ki below 300 nM. The inhibition at 10 µM in series [3] is below 50%.
Regarding `CN1C(=O)C2(COc3cc4c(cc32)OCCO4)c2c(Oc3ccccc3)cccc21` (stereo not shown) [Example 16.80, 1′-methyl-4-phenoxy-2,3-dihydrospiro[furo[2,3-g][1,4]benzodioxine-8,3′-indol]-2′(1′H)-one], the Ki in series [2] was below 300 nM. Besides, in series [3], the inhibition at 10 µM is above 50%.
